These are literature values, as cited in patent US20080131503A1 (priority 2005, published 2008).

For this data set the following is noted: oral.

Turning to `CC(C)c1c(C(=O)Nc2ccccc2)c(-c2ccccc2)c(-c2ccc(F)cc2)n1CC[C@@H](O)C[C@@H](O)CC(=O)O` [Atorvastatin], the “Systemic availability of HMG-CoA reductase inhibitory activity” value is on record as “approximately 30%”.
